The assay deals with human OX2R (Homo sapiens (Human), UniProt O43614). Put plainly: IPOne (IP-1) assay in CHO cells expressing human OX2R. The assay is classed as cell-based. The conditions noted are these: for IC50: CHO cells expressing human OX2R, IP-One detection, 2 hours incubation, EC50 = inflection point of four parameter logistic fit, read-out: hOX2R_IP_IC50; for Emax: CHO, percentage of mean max effect of a reference compound at 1 uM (100% activity by comparison to Orexin A), human OX2R, read-out: Emax (%). The gist of the method:
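CHO cells stably expressing human OX2R were stimulated with compound (10-point ½-log dilutions) for 2 h at 37 °C. IP-1 accumulation was read by HTRF (IP-One, 665/620 nm). EC50 from a four-parameter fit; % effect relative to 1 μM reference agonist control.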

One may read the Emax as the size of the effect at its maximum, as opposed to the concentration needed.

human OX2R, sequence (O43614 whole entry): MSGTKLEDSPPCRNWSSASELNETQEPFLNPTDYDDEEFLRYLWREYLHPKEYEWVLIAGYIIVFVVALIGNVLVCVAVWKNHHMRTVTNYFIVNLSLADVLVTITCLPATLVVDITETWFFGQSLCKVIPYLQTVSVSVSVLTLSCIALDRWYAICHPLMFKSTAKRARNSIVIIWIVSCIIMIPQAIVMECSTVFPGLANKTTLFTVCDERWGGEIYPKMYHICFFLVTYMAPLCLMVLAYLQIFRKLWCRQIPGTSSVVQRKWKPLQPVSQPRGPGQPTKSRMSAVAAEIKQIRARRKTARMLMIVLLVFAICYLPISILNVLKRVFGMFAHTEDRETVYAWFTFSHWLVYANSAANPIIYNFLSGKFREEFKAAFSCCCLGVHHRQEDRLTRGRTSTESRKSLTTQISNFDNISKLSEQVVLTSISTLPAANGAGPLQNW

With `COC(=O)N1CC[C@H](NS(C)(=O)=O)[C@@H]1CO[C@@H]1CC[C@]2(c3ncccn3)C[C@@H]2C1` (single isomer, unassigned) [Example 176], the IC50 came out at 2030 nM and the Emax was 94.7%.
As to `COC(=O)N1[C@H](C)C[C@H](NS(=O)(=O)C(F)F)[C@@H]1CO[C@H]1CC[C@@]2(c3ncc(F)cn3)C[C@H]2C1` [Example 48, methyl (2R,3S,5R)-3-((difluoromethyl)sulfonamido)-2-((((1S,3S,6R)-6-(5-fluoropyrimidin-2-yl)bicyclo[4.1.0]heptan-3-yl)oxy)methyl)-5-methylpyrrolidine-1-carboxylate], the Emax was 101%.
For the compound `COC(=O)N1[C@H](C)C[C@H](NS(=O)(=O)N(C)C)[C@@H]1CO[C@H]1CC[C@@]2(c3ncc(F)cn3)C[C@H]2C1` [Example 166, methyl (2R,3S,5R)-3-((N,N-dimethylsulfamoyl)amino)-2-((((1S,3S,6R)-6-(5-fluoropyrimidin-2-yl)bicyclo[4.1.0]heptan-3-yl)oxy)methyl)-5-methylpyrrolidine-1-carboxylate], the IC50 is 0.41 nM and the Emax came to 99.4%.
On to `COC(=O)N1[C@H](C)C[C@H](NS(=O)(=O)N(C)C)[C@@H]1COC1CCC2(c3cc(F)cc(F)c3)CC2C1` (stereo partly drawn) [Example 4, methyl (2R,3S,5R)-2-(((6-(3,5-difluorophenyl)bicyclo[4.1.0]heptan-3-yl)oxy)methyl)-3-((N,N-dimethylsulfamoyl)amino)-5-methylpyrrolidine-1-carboxylate], for which the Emax came out at 97.3%.
The same measure, in the same setting: to `CC(C)OC(=O)N1[C@H](C)C[C@H](NS(=O)(=O)N(C)C)[C@@H]1COC1CCC2(c3ncc(F)cn3)CC2C1` (stereo partly drawn) [Example 164, isopropyl (2R,3S,5R)-3-((N,N-dimethylsulfamoyl)amino)-2-(((6-(5-fluoropyrimidin-2-yl)bicyclo[4.1.0]heptan-3-yl)oxy)methyl)-5-methylpyrrolidine-1-carboxylate] belongs 100%.
In the case of `CC(C)OC(=O)N1[C@H](C)C[C@H](NS(=O)(=O)CF)[C@@H]1CO[C@H]1CC[C@@]2(c3ncc(Br)cn3)C[C@H]2C1` (single isomer, unassigned) [Example 103], the IC50 was 4.3 nM and the maximal effect (Emax) was determined as 101%.
As to `C[C@@H]1C[C@H](NS(C)(=O)=O)[C@H](CO[C@H]2CC[C@@]3(c4ncc(F)cn4)C[C@H]3C2)N1C(=O)OCC1(F)CC1` [Example 61, (1-fluorocyclopropyl)methyl (2R,3S,5R)-2-((((1S,3S,6R)-6-(5-fluoropyrimidin-2-yl)bicyclo[4.1.0]heptan-3-yl)oxy)methyl)-5-methyl-3-(methylsulfonamido)pyrrolidine-1-carboxylate], the Emax amounted to 104%.
With `COC(=O)N1[C@H](C)C[C@H](NS(=O)(=O)CF)[C@@H]1CO[C@H]1CC[C@@]2(c3ncc(Br)cn3)C[C@H]2C1` (single isomer, unassigned) [Example 87], the IC50 was 2 nM and the maximal response (Emax) worked out at 102%.
Regarding `C[C@@H]1C[C@H](NS(C)(=O)=O)[C@H](CO[C@H]2CC[C@@]3(c4ncc(F)cn4)C[C@H]3C2)N1C(=O)OCC(F)C1CCC1` (stereo partly drawn) [Example 54, 2-cyclobutyl-2-fluoroethyl (2R,3S,5R)-2-((((1S,3S,6R)-6-(5-fluoropyrimidin-2-yl)bicyclo[4.1.0]heptan-3-yl)oxy)methyl)-5-methyl-3-(methylsulfonamido)pyrrolidine-1-carboxylate], the maximal effect (Emax) worked out at 104%.
For the compound `C[C@@H]1C[C@H](NS(C)(=O)=O)[C@H](CO[C@H]2CC[C@@]3(c4ncc(F)cn4)C[C@H]3C2)N1C(=O)OCC(C)(F)F` [Example 64, 2,2-difluoropropyl (2R,3S,5R)-2-((((1S,3S,6R)-6-(5-fluoropyrimidin-2-yl)bicyclo[4.1.0]heptan-3-yl)oxy)methyl)-5-methyl-3-(methylsulfonamido)pyrrolidine-1-carboxylate], the Emax was 101%.
